Experimental data as given in patent US20100036088A1, “Selective poly-N-substituted glycine antibiotics” (priority 2008, published 2010).
Read-outs that look alike come from different tables or passages of the source. Square brackets hold non-standard residues; d marks the D form. Peptide text beside a SMILES is read from it. Nrpe = C[C@@H](NCC(=O)O)c1ccccc1; Nspe = C[C@H](NCC(=O)O)c1ccccc1; Nlys = NCCCCNCC(=O)O

Key:
B. subtilis (ATCC 6633) = type: cell-based; settings: ATCC 6633
Procedure: (§1) Whereas the preceding generation of molecules was designed to elucidate structure function relationships of specific molecular parameters (chirality, length, hydrophobicity, etc.), another generation compounds were designed explicitly to explore effects on selectivity. Antimicrobial activity of these compounds was tested against bacterial strains E. coli (ATTC 35218) and B. subtilis (ATTC 6633) in cation-adjusted MHB using the microdilution protocols previously described. The sequences, antimicrobial activities, hemolytic activities, and metabolic inhibitory concentrations against NIH 3T3 mouse fibroblast cells are summarized in Table 3 and the rationale of their design is described below.
(§2) The potencies of all compounds were determined against representative Gram-negative (E. coli ATCC 35218) and Gram-positive (B. subtilis ATCC 6633) biosafety level 1 (BSL1) organisms. In addition to hemolytic activity, the conventional measure of toxicity to mammalian cells, the effect of each ampetoid on NIH 3T3 mouse fibroblast cells was determined using the MTS tetrazolium salt-based calorimetric assay. While hemolysis measures the degree to which erythrocytes are lysed, the MTS assay indirectly quantifies the extent to which cellular metabolic activity is inhibited.
(§3) Screening antibacterial assays. MICs were determined in 96-well microtiter plates in accordance with CLSI M7-A6 protocols. Peptoid solutions with 50 μL total volume were prepared using 2:1 serial dilutions. 50 μL of bacteria inoculum (1×10^6 CFU/mL) prepared in cation-adjusted Mueller-Hinton broth (CAMHB) was added to test wells. Control wells contained 100 μL MHB (no growth) or 50 μL inoculums with 50 μL MHB with no peptoid. […] Reported values were reproducible over three experiments, each containing two parallel trials.

E. coli (ATCC 35218) = type: cell-based; settings: ATCC 35218
Procedure: as §1, §2, §3

human erythrocytes = experiment: Hemolysis assay; type: cell-based
Procedure: Hemolysis assays. Erythrocytes were isolated from freshly drawn, heparanized human blood and resuspended to 20 vol % in PBS (pH 7.4). In a 96-well microtiter plate, 100 μL erythrocyte suspension was added to 100 μL peptoid solution in PBS (prepared by 1:2 serial dilutions), or 100 μL PBS in the case of negative controls. 100% hemolysis wells contained 100 μL blood cell suspension with 100 μL 0.2 vol % Triton X-100. The plate was incubated for 1 h at 37° C., then each well was diluted with 150 μL PBS. The plate was then centrifuged at 1200 g for 15 min, 100 μL of the supernatant from each well transferred to a fresh microtiter plate, and A350 measured.
Hemolysis assays. Erythrocytes were isolated from freshly drawn, heparanized human blood and resuspended in PBS (pH 7.4) to make a 20% volume suspension. Peptoid solutions were prepared by serial dilution (2:1) in a 96-well microtiter plate. For test wells, 100 μL of erythrocyte suspension was added to 100 μL of peptoid solution in PBS; PBS without peptoid was used as the negative control and 0.2 vol % Triton X-100 as the positive control that indicates 100% hemolysis. After 1 hour incubation at 37° C., each well was diluted with 150 μL PBS. Plates were then centrifuged at 1,200×g for 15 minutes to pellet the cells. 30 μL of the supernatant from each well were transferred to the corresponding well of a second 96-well plate that contains 70 μL PBS.

[1] = MTS assay, metabolic inhibition; type: cell-based, mouse
Procedure: as §2
MTS assays. NIH/3T3 cells (ATCC Corporation) cultured at 37° C. and 5% CO2 in complete Dulbecco's modified eagle's media (CDMEM) supplemented with 1% sodium pyruvate, 1% penicillin-streptomycin, 1.5 g/L NaHCO3, and 10% fetal bovine serum. Cells were seeded at a density of 5,000 cells per well for NIH/3T3 cells in 96-well plates (100 μl total volume). A peptoid solution plate (100 μL total volume per well) was prepared by serial dilution of aqueous peptoid stock solution in Hank's balanced salt solution (HBSS) media. The day-old cell monolayers were washed with HBSS and media was replaced with 100 μL HBSS. The contents of the peptoid solution plate were transferred onto corresponding wells of the cell monolayer plate, and 40 μL MTS reagent (Promega, Inc.) was added to each well. After incubating for 3 hours at 37° C., absorbance at 490 nm was determined. […] The average of six replicates is reported.

[2] = Table 6, NIH 3T3 mouse fibroblast cells

| SMILES | B. subtilis MIC (B. subtilis (ATCC 6633)) [µM] | E. coli MIC (E. coli (ATCC 35218)) [µM] | HD10 (human erythrocytes) | HD50 (human erythrocytes) | IC50 [1] [µM] | B. subtilis MIC (B. subtilis (ATCC 6633); Table 6) [µM] | E. coli MIC (E. coli (ATCC 35218); Table 6) [µM] | IC50 [1, 2] [µM] | HD10 (human erythrocytes; Table 6) [µM] | HD50 (human erythrocytes; Table 6) [µM] |
| --- | --- | --- | --- | --- | --- | --- | --- | --- | --- | --- |
| C[C@@H](c1ccccc1)N(CC(N)=O)C(=O)CN(C(=O)CN(CCCCN)C(=O)CN(C(=O)CN(C(=O)CN(CCCCN)C(=O)CN(CCc1cnc[nH]1)C(=O)CN(C(=O)CN(CCCCN)C(=O)CN(C(=O)CN(C(=O)CNCCCCN)[C@@H](C)c1ccccc1)[C@@H](C)c1ccccc1)[C@@H](C)c1ccccc1)[C@@H](C)c1ccccc1)[C@@H](C)c1ccccc1)[C@@H](C)c1ccccc1 [1-Nhis6] | 1.6 | 25 | 170 µM | > 200 µM |  |  |  |  |  |  |
| C[C@@H](c1ccccc1)N(CC(N)=O)C(=O)CN(CCCCN)C(=O)CN(CCCCN)C(=O)CN(C(=O)CN(C(=O)CN(CCCCN)C(=O)CN(C(=O)CN(CCCCN)C(=O)CN(CCCCN)C(=O)CN(C(=O)CN(C(=O)CNCCCCN)[C@@H](C)c1ccccc1)[C@@H](C)c1ccccc1)[C@@H](C)c1ccccc1)[C@@H](C)c1ccccc1)[C@@H](C)c1ccccc1 [1-Nlys5,11, H-(Nlys-Nspe-Nspe-Nlys-Nlys-Nspe)2-NH2] (H-[Nlys][Nspe][Nspe][Nlys][Nlys][Nspe][Nlys][Nspe][Nspe][Nlys][Nlys][Nspe]-NH2) | 1.6 | 50 | >100/>100 μM | >100/>100 μM | 85 |  |  |  |  |  |
| C[C@@H](c1ccccc1)N(CC(N)=O)C(=O)CN(C(=O)CN(CCCCN)C(=O)CN(Cc1ccccc1)C(=O)CN(Cc1ccccc1)C(=O)CN(CCCCN)C(=O)CN(C(=O)CN(C(=O)CN(CCCCN)C(=O)CN(Cc1ccccc1)C(=O)CN(Cc1ccccc1)C(=O)CNCCCCN)[C@@H](C)c1ccccc1)[C@@H](C)c1ccccc1)[C@@H](C)c1ccccc1 [1-Npm2,3,8,9, H-(Nlys-Npm-Npm-Nlys-Nspe-Nspe)2-NH2] | 1.6 | 6.3 |  | > 200 µM | 15 |  |  |  |  |  |
| C[C@H](c1ccccc1)N(CC(=O)N(CCCCN)CC(=O)N(CC(=O)N(CC(=O)N(CCCCN)CC(=O)N(CC(=O)N(CC(=O)N(CCCCN)CC(=O)N(CC(=O)N(CC(N)=O)[C@@H](C)c1ccccc1)[C@@H](C)c1ccccc1)[C@@H](C)c1ccccc1)[C@@H](C)c1ccccc1)[C@H](C)c1ccccc1)[C@H](C)c1ccccc1)C(=O)CN(C(=O)CNCCCCN)[C@H](C)c1ccccc1 [1-Nrpe2,3,5,6, H-(Nlys-Nrpe-Nrpe)2-(Nlys-Nspe-Nspe)2-NH2] (H-[Nlys][Nrpe][Nrpe][Nlys][Nrpe][Nrpe][Nlys][Nspe][Nspe][Nlys][Nspe][Nspe]-NH2) |  |  |  |  |  | 0.78 | 6.3 | 4.8 | 25 | 96 |
| C[C@H](c1ccccc1)N(CC(=O)N(CC(N)=O)[C@@H](C)c1ccccc1)C(=O)CN(CCCCN)C(=O)CN(C(=O)CN(C(=O)CN(CCCCN)C(=O)CN(C(=O)CN(C(=O)CN(CCCCN)C(=O)CN(C(=O)CN(C(=O)CNCCCCN)[C@H](C)c1ccccc1)[C@@H](C)c1ccccc1)[C@H](C)c1ccccc1)[C@@H](C)c1ccccc1)[C@H](C)c1ccccc1)[C@@H](C)c1ccccc1 [1-Nrpe2,5,8,11, H-(Nlys-Nrpe-Nspe)4-NH2] (H-[Nlys][Nrpe][Nspe][Nlys][Nrpe][Nspe][Nlys][Nrpe][Nspe][Nlys][Nrpe][Nspe]-NH2) |  |  |  |  |  | 1.6 | 6.3 | 5.2 | 22 | 95 |
| C[C@H](c1ccccc1)N(CC(N)=O)C(=O)CN(C(=O)CN(CCCCN)C(=O)CN(C(=O)CN(C(=O)CN(CCCCN)C(=O)CN(C(=O)CN(C(=O)CN(CCCCN)C(=O)CN(C(=O)CN(C(=O)CNCCCCN)[C@@H](C)c1ccccc1)[C@H](C)c1ccccc1)[C@@H](C)c1ccccc1)[C@H](C)c1ccccc1)[C@@H](C)c1ccccc1)[C@H](C)c1ccccc1)[C@@H](C)c1ccccc1 [1-Nrpe3,6,9,12, H-(Nlys-Nspe-Nrpe)4-NH2] |  |  |  |  |  | 1.6 | 6.3 | 3.8 | 16 | 67 |
| C[C@@H](c1ccccc1)N(CC(N)=O)C(=O)CN(C(=O)CN(CCCCN)C(=O)[C@@H]1CCCN1C(=O)CN(C(=O)CN(CCCCN)C(=O)CN(C(=O)CN(C(=O)CN(CCCCN)C(=O)[C@@H]1CCCN1C(=O)CN(C(=O)CNCCCCN)[C@@H](C)c1ccccc1)[C@@H](C)c1ccccc1)[C@@H](C)c1ccccc1)[C@@H](C)c1ccccc1)[C@@H](C)c1ccccc1 [1-Pro3,9, H-(Nlys-Nspe-L-Pro-Nlys-Nspe-Nspe)2-NH2] (H-[Nlys][Nspe]P[Nlys][Nspe][Nspe][Nlys][Nspe]P[Nlys][Nspe][Nspe]-NH2) | 1.6 | 50 | >200/>200 μM | >200/>200 μM | 71 |  |  |  |  |  |
| C[C@@H](c1ccccc1)N(CC(N)=O)C(=O)CN(C(=O)CN(CCCCN)C(=O)CN(C(=O)CN(C(=O)CN(CCCCN)C(=O)CN(C(=O)CN(C(=O)CN(CCCCN)C(=O)[C@@H]1CCCN1C(=O)CN(C(=O)CNCCCCN)[C@@H](C)c1ccccc1)[C@@H](C)c1ccccc1)[C@@H](C)c1ccccc1)[C@@H](C)c1ccccc1)[C@@H](C)c1ccccc1)[C@@H](C)c1ccccc1 [1-Pro3, H-Nlys-Nspe-L-Pro-(Nlys-Nspe-Nspe)3-NH2] (H-[Nlys][Nspe]P[Nlys][Nspe][Nspe][Nlys][Nspe][Nspe][Nlys][Nspe][Nspe]-NH2) | 1.6 | 12.5 | 74 µM | > 200 µM | 12 |  |  |  |  |  |
| C[C@H](NCC(=O)N(CCCCN)CC(=O)N(CC(=O)N(CCCCN)CC(=O)N(CCCCN)CC(=O)N(CCCCN)CC(=O)N(CC(=O)N(CCCCN)CC(=O)N(CC(=O)N(CCCCN)CC(=O)N(CCCCN)CC(=O)N(CC(=O)N(CC(=O)N(CCCCN)CC(=O)N(CC(N)=O)[C@@H](C)c1ccccc1)[C@@H](C)c1ccccc1)[C@@H](C)c1ccccc1)[C@@H](C)c1ccccc1)[C@@H](C)c1ccccc1)[C@@H](C)c1ccccc1)c1ccccc1 [1B15mer-Nlys4,6,10, H-(Nspe-Nlys)2-Nlys2-(Nspe-Nlys)2-Nlys-Nspe2-Nlys-Nspe-NH2] (H-[Nspe][Nlys][Nspe][Nlys][Nlys][Nlys][Nspe][Nlys][Nspe][Nlys][Nlys][Nspe][Nspe][Nlys][Nspe]-NH2) | 0.78 | >100 |  |  | 40 |  |  |  |  |  |
| C[C@H](NCC(=O)N(CCCCN)CC(=O)N(CC(=O)N(CCCCN)CC(=O)N(CCCCN)CC(=O)N(CCCCN)CC(=O)N(CC(=O)N(CCCCN)CC(=O)N(CC(=O)N(CCCCN)CC(=O)N(CCCCN)CC(=O)N(CC(N)=O)[C@@H](C)c1ccccc1)[C@@H](C)c1ccccc1)[C@@H](C)c1ccccc1)[C@@H](C)c1ccccc1)c1ccccc1 [1B-Nlys4,6,10, H-(Nspe-Nlys)2-Nlys2-(Nspe-Nlys)2-Nlys-Nspe)-NH2] (H-[Nspe][Nlys][Nspe][Nlys][Nlys][Nlys][Nspe][Nlys][Nspe][Nlys][Nlys][Nspe]-NH2) | 1.6 | >100 |  |  | > 100 |  |  |  |  |  |
